Measurements published in paper PMC11879040, “Advancing systemic toxicity risk assessment: Evaluation of a NAM-based toolbox approach” (Toxicological Sciences, 2024).
Where two headings read alike, the source gives them in different places.

Experiments:
[1] = target: Cannabinoid receptor 2, CNR2 (h) (Homo sapiens, UniProt P34972); format: binding; conditions: IPP screening at 10 uM; control WIN 55212-2
[2] = target: cGMP-inhibited 3',5'-cyclic phosphodiesterase A, PDE3A (h) (Homo sapiens, UniProt Q14432); experiment: IPP PDE3A enzymatic activity; format: biochemical; conditions: control milrinone
[3] = target: Voltage-dependent L-type Ca2+ channel (dihydropyridine site), CACNA1C (r) (Rattus norvegicus, UniProt P22002); format: binding
[4] = target: T1, 5-hydroxytryptamine receptor 1A, HTR1A (h) (Homo sapiens, UniProt P08908); conditions: control 8-OH-DPAT
T1 sequence (P08908 1-422): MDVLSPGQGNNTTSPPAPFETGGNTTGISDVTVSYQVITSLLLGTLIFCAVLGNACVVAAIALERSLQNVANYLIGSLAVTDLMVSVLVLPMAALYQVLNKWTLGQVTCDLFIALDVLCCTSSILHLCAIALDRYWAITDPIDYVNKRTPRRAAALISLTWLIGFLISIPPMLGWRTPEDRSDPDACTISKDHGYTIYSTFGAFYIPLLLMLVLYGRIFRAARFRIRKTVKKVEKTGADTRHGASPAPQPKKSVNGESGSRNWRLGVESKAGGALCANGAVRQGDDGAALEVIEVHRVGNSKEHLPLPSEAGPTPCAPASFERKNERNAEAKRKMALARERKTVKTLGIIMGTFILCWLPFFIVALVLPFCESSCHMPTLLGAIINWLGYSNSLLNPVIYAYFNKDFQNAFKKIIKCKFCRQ

[5] = target: T2, Estrogen receptor, ER1 (h) (Homo sapiens, UniProt P03372); experiment: IPP ER1 coactivator recruitment (agonist); format: biochemical; conditions: estriol
T2 construct: purchased Eurofins Cerep (SafetyScreen44-based IPP panel)
T2 sequence (P03372 1-595): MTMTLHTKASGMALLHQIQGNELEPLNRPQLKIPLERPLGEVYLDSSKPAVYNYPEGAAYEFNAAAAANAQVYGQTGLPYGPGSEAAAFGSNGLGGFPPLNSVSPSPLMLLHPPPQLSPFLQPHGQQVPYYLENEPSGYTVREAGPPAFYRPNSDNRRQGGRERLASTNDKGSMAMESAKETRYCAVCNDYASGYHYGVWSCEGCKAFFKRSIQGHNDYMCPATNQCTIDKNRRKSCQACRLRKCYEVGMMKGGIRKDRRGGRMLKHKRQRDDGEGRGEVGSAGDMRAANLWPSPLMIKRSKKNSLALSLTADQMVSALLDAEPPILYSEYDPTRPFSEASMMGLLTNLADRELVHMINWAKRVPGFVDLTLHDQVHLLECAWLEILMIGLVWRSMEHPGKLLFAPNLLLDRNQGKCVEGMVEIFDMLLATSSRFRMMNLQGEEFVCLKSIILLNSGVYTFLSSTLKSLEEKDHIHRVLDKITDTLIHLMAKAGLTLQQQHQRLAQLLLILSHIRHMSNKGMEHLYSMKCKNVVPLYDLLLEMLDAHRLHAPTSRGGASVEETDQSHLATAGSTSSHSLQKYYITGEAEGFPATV

[6] = target: Beta-1 adrenergic receptor, ADRB1 (h) (Homo sapiens, UniProt P08588); conditions: control atenolol
[7] = target: T3, Alpha-1A adrenergic receptor, ADRA1A (h) (Homo sapiens, UniProt P35348); conditions: control WB 4101
T3 sequence (P35348 1-466): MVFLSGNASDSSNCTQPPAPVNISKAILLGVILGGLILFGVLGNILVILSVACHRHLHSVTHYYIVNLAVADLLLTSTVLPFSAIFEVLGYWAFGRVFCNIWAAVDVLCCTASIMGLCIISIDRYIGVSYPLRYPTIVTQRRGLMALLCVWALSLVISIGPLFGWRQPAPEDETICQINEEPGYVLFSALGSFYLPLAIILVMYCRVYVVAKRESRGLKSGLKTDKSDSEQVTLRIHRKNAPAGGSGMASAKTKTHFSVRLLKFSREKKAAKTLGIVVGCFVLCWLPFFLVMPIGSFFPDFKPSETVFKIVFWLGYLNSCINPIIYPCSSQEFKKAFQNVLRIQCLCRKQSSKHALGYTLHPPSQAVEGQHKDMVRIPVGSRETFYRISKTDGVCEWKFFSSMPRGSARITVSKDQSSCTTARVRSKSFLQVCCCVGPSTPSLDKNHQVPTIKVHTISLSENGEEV

[8] = target: Histamine H2 receptor, HRH2 (h) (Homo sapiens, UniProt P25021); experiment: IPP HRH2 binding (antagonist radioligand); conditions: control cimetidine
[9] = target: T2, Estrogen receptor, ER1 (h); experiment: IPP ER1 coactivator recruitment (antagonist); format: biochemical; conditions: estriol
[10] = target: T4, Adenosine receptor A2a, ADORA2A (h) (Homo sapiens, UniProt P29274); experiment: IPP ADORA2A binding (agonist radioligand); conditions: control NECA
T4 construct: purchased Eurofins Cerep (SafetyScreen44-based IPP panel)

[11] = test system: Potassium Voltage-Gated Channel Kv non-selective, KCNQ1 (r); experiment: IPP KCNQ1 binding (antagonist radioligand); design: species or system rat
[12] = target: T5, Muscarinic acetylcholine receptor M2, CHRM2 (h) (Homo sapiens, UniProt P08172); conditions: control methoctramine
T5 sequence (P08172 1-466): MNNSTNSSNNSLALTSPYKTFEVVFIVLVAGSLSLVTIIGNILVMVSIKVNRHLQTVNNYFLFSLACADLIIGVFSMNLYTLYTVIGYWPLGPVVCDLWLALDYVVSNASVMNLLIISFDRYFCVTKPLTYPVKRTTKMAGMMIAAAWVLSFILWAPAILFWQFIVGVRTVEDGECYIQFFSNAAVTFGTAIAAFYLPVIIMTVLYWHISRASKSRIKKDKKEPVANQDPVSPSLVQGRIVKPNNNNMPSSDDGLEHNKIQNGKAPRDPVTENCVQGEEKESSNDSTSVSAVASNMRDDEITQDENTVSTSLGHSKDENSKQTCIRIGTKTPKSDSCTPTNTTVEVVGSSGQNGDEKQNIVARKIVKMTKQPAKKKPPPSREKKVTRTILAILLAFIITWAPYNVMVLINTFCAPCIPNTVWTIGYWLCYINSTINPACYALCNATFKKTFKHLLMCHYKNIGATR

[13] = target: Acetylcholinesterase, ACHE (h) (Homo sapiens, UniProt P22303); format: biochemical; conditions: control galanthamine
[14] = 100 uM, * denotes assay interference (2-Amino-6-chloro-4-nitrophenol, HC Red 3)

Beta-1 adrenergic receptor, ADRB1 (h), sequence (P08588 whole entry): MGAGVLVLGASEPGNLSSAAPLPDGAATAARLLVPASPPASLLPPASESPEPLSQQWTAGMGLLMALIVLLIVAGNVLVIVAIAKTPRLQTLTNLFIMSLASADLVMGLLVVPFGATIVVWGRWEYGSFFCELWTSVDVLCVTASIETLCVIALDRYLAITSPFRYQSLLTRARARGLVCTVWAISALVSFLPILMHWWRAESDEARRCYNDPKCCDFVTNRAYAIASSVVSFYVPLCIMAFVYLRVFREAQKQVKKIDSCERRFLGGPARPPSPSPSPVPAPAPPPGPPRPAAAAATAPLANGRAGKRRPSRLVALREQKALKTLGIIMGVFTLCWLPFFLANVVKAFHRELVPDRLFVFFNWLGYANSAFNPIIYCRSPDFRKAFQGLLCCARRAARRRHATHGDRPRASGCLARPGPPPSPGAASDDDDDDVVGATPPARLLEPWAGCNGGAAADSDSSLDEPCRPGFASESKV
Acetylcholinesterase, ACHE (h), sequence (P22303 32-614): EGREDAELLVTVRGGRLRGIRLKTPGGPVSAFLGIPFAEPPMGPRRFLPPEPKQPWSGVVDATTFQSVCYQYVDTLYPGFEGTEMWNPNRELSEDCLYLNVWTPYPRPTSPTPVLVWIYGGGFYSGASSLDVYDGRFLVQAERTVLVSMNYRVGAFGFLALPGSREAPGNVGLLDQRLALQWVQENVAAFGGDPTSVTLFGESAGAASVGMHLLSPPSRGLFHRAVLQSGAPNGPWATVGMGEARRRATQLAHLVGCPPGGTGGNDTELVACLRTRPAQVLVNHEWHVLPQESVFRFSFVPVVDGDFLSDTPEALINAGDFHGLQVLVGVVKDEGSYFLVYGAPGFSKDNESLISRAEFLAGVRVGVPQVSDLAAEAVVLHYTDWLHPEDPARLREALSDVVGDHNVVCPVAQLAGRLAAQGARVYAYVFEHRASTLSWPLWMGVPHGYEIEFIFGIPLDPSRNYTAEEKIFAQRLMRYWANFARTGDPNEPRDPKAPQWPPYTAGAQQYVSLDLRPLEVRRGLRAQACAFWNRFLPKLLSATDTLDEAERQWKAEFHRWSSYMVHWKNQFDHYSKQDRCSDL
Histamine H2 receptor, HRH2 (h), sequence (P25021 whole entry): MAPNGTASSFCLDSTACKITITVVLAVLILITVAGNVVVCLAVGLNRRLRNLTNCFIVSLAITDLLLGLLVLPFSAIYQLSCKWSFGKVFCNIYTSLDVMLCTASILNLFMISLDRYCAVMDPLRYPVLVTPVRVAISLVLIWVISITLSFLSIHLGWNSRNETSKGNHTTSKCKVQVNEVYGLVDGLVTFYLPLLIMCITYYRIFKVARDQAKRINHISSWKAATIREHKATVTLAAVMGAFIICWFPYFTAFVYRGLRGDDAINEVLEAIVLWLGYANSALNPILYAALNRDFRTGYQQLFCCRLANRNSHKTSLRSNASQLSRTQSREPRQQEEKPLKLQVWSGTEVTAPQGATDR
Cannabinoid receptor 2, CNR2 (h), sequence (P34972 whole entry): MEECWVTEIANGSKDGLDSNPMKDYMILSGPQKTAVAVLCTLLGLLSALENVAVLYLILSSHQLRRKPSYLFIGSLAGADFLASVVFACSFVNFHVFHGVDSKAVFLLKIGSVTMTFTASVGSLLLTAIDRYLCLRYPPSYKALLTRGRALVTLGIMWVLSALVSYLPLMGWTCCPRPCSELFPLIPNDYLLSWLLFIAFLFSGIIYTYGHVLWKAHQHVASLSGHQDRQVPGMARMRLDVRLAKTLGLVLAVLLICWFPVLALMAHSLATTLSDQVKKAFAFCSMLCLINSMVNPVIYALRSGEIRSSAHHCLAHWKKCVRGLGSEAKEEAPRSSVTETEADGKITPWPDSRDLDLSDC
T4 sequence (P29274 whole entry): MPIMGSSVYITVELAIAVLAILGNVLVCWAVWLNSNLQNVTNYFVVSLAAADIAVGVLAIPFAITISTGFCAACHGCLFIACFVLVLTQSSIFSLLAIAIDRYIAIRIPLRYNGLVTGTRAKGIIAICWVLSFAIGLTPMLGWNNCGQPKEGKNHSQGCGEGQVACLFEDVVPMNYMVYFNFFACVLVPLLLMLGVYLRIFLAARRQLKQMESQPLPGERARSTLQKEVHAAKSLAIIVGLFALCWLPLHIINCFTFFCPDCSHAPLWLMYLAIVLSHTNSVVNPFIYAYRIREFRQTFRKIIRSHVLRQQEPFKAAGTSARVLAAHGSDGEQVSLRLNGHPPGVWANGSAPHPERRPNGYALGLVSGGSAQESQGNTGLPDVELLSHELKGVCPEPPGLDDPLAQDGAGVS
Voltage-dependent L-type Ca2+ channel (dihydropyridine site), CACNA1C (r), sequence (P22002 whole entry): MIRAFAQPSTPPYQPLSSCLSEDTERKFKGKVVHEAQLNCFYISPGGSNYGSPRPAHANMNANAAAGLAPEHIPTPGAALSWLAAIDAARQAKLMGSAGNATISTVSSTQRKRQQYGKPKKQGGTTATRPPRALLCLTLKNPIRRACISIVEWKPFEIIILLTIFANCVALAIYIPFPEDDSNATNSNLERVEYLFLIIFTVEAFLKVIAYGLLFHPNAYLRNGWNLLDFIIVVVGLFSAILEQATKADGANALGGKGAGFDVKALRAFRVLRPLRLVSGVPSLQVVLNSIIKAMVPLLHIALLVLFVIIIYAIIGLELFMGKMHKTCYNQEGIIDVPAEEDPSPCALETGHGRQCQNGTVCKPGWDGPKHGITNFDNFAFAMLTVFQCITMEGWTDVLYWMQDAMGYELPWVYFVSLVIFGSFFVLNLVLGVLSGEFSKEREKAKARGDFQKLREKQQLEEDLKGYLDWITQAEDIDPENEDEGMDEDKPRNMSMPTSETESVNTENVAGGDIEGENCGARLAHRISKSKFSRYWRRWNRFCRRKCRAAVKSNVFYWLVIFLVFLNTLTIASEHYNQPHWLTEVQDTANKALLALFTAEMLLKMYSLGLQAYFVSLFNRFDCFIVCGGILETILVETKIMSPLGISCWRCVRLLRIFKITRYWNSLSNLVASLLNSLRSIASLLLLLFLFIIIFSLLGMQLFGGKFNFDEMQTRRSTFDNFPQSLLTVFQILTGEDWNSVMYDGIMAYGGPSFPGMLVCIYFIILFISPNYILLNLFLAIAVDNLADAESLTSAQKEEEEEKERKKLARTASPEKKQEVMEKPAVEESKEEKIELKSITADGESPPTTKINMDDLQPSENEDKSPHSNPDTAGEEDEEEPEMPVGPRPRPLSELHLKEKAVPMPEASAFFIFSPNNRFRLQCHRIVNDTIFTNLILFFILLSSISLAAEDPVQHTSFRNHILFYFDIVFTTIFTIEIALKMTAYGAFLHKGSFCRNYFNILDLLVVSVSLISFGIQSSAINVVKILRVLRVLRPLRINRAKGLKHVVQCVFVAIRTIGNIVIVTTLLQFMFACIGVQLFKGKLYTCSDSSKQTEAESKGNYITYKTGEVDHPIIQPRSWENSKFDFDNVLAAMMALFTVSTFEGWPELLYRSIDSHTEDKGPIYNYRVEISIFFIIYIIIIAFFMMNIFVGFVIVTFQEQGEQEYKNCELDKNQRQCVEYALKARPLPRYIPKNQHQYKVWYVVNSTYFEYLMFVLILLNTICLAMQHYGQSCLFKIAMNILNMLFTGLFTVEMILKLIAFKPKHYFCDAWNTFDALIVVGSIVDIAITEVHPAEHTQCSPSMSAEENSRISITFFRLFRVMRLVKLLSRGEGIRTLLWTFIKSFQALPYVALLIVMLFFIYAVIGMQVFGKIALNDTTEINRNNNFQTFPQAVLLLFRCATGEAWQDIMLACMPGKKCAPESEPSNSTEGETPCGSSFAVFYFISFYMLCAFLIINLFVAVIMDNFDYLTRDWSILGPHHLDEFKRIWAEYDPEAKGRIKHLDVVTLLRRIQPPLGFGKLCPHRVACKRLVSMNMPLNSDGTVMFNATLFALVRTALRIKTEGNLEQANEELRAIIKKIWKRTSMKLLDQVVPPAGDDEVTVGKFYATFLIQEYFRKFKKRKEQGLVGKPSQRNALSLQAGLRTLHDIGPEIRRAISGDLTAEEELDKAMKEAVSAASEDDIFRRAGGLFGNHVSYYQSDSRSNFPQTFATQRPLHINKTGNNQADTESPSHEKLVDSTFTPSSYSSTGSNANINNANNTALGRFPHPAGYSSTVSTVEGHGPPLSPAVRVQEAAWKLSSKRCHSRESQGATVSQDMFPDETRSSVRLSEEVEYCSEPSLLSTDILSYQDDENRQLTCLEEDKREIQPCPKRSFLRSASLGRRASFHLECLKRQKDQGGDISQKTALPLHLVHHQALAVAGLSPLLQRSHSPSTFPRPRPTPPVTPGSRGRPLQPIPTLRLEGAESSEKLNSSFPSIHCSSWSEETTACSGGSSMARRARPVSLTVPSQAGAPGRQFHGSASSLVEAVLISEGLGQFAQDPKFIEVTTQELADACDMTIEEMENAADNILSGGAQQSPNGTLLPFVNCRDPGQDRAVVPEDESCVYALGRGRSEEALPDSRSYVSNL

Compound | Specific binding [1] [%] | Enzymatic activity ([2]; IPP screening at 10 uM) [%] | Specific binding [3] [%] | Specific binding ([4]; IPP screening at 10 uM) [%] | IPP screening %, Coactivator recruitment ([5]; 10 uM) [%] | Specific binding ([6]; IPP screening at 10 uM) [%] | Specific binding ([7]; IPP screening at 10 uM) [%] | Specific binding ([8]; IPP screening at 10 uM) [%] | IPP screening %, Coactivator recruitment ([9]; 10 uM) [%] | Specific binding ([10]; IPP screening at 10 uM) [%] | Specific binding [11] [%] | Specific binding ([12]; IPP screening at 10 uM) [%] | Enzymatic activity ([13]; IPP screening at 10 uM) [%] | other results
CCOP(=S)(OCC)Oc1nc(Cl)c(Cl)cc1Cl [Chlorpyrifos, O,O-Diethyl O-(3,5,6-trichloropyridin-2-yl) phosphorothioate] | 16.0 | 36.9 | 47.7 | 11.6 | -1.0 | 5.3 | 5.4 | -62.6 | 9.0 | 15.6 | 15.4 | -21.3 | -10.5 | 
CC(C)(C)c1ccc(CCOc2ncnc3ccccc23)cc1 [Fenazaquin, 4-[2-(4-tert-Butylphenyl)ethoxy]quinazoline] | 26.8 | 32.4 |  | -11.2 | -2.0 | 16.5 | 35.8 | -38.6 | 4.0 | 47.1 |  | 14.3 | -0.7 | Specific binding ([3]; IPP screening at 10 uM, control nitrendipine): 19.8%; Specific binding ([11]; IPP screening at 10 uM, control α-dendrotoxin): -1.6%
CC1(C)O[C@@H]2[C@@H](CO[C@@]3(COS(N)(=O)=O)OC(C)(C)O[C@@H]23)O1 [Topiramate, [(3aS,5aR,8aR,8bS)-2,2,7,7-Tetramethyltetrahydro-2H,3aH,7H-bis[1,3]dioxolo[4,5-b:4',5'-d]pyran-3a-yl]methyl sulfamate (non-preferred name)] |  |  | -33.5 |  |  |  |  |  |  |  |  |  |  | Enzymatic activity ([2]; IPP screening at 100 uM): 12%; Specific binding ([4]; IPP screening at 100 uM): 18.5%; IPP screening %, Coactivator recruitment [5, 14]: -1.0%; Specific binding ([6]; IPP screening at 100 uM): -2.9%; Specific binding ([7]; IPP screening at 100 uM): 2.2%; Specific binding ([8]; IPP screening at 100 uM): -13.7%; IPP screening %, Coactivator recruitment [9, 14]: -1.0%; Specific binding ([10]; IPP screening at 100 uM): 0.9%; Specific binding ([11]; IPP screening at 100 uM, control α-dendrotoxin): -2.7%; Specific binding ([12]; IPP screening at 100 uM): 0.7%; Enzymatic activity ([13]; IPP screening at 100 uM): -0.1%
(4S,4aR,5S,5aR,6S,12aS)-4-(Dimethylamino)-3,5,6,10,12,12a-hexahydroxy-6-methyl-1,11-dioxo-1,4,4a,5,5a,6,11,12a-octahydrotetracene-2-carboxamide--hydrogen chloride (1/1) [Oxytetracycline hydrochloride] | 4.9 | 30.0 | -32.1 | 1.5 |  | 7.5 | 6.2 | -18.3 |  | 7.5 | -19.0 |  |  | 
mixture of 2- and 3-tert-butyl-4-methoxyphenol [Butylated Hydroxyanisole] | -1.2 | 22.6 | -14.2 | -7.7 |  | 6.3 | 20.2 | -2.5 |  | 2.8 | 4.9 | 8.9 | 5.9 | 
